Experimental findings from patent US20070167353A1, “PRODRUG COMPOSITION” (priority 2003, published 2007) are described below.

One series deals with vaccinia virus. The series can be described thus: microbe, parasite or virus in culture. It counts as cell-based. Particulars: read-out: Vaccinia Plaque Reduction (IC50).
Series [1] deals with T1, human dipeptide transporter, hPept1 (Homo sapiens, UniProt P46059).
T1 sequence (P46059 1-708): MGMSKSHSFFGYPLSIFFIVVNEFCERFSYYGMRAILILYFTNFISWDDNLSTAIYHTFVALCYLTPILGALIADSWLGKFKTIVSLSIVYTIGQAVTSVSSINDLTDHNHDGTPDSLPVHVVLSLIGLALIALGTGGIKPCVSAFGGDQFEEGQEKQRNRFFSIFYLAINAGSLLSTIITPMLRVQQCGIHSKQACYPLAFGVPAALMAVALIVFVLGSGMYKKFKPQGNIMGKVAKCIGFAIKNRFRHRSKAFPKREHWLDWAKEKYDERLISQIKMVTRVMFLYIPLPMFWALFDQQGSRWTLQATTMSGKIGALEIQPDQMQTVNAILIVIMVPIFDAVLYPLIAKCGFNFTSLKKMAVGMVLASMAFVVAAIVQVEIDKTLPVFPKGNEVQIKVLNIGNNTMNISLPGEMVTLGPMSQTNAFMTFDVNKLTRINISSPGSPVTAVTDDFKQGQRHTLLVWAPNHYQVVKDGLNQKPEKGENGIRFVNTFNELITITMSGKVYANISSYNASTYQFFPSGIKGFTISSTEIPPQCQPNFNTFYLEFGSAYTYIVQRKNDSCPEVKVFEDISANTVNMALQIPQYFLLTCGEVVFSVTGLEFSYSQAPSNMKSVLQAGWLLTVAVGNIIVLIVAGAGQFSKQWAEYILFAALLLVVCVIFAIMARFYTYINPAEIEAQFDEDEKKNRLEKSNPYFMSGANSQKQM
As to conditions: for HeLa/hPEPT1 uptake: pH 6.

Series [2] concerns KB cell. The series can be described thus: KB cell cytotoxicity. As to conditions: read-out: KB cell cytotoxicity (IC50).
The next series concerns Caco-2 monolayers. The series can be described thus: Caco-2 monolayer transport and stability. It counts as in vitro ADME. As to conditions: for Permeability: apical to basolateral, 0.2 mM drug, apical pH 6.0, n = 3; for Stability (% remaining) Apical chamber (donor): percent prodrug remaining in donor solution at 120 minutes; for Stability (% remaining) Basolateral chamber (receiver): percent prodrug remaining in receiver solution at 120 minutes. On the procedure:
The transepithelial transport of Ara A, 5′-O-L-valyl Ara A, 5′-O-L-isoleucyl Ara A is tested in Caco-2 monolayers grown in transwell filters following standard procedures as described in detail in Landowski, C. P. et al., Pharm Res, 2005. 22(9): p. 1510-8. In these experiments, transport studies are performed 21 days post-seeding. The assay is initiated by adding drug transport solution (0.2 mM drug in MES buffer, pH 6.0 containing 5 mM D-glucose, 5 mM MES, 1 mM CaCl2, 1 mM MgCl2, 150 mM NaCl, 3 mM KCl, 1 mM NaH2PO4) to the apical chamber of the Caco-2 insert. Two hundred microliter aliquots are withdrawn from the basolateral chamber at predetermined intervals and replaced with fresh HEPES pH 7.4 buffer. The epithelial integrity of representative cell monolayers is assessed by monitoring transepithelial resistance. In these assays, the stability of the drug in both chambers of the insert is also monitored. […] Importantly, the prodrugs are stable, showing minimal metabolism to Ara A and Ara-H over a 2-hour time frame.
A general note: Caco-2 cells form a polarised layer with tight junctions and transporters.

The conditions of series [3]: Caco-2 cell homogenates, n = 3.
A short description of series [4]: Intestinal absorption after direct duodenal injection in anesthetized rats, plasma by LC/MS/MS. Particulars: for AUC0-4 hr of Prodrug: rat plasma, duodenal injection of the named prodrug. Here is the method: The systemic plasma profiles of the prodrug, Ara A, and its main metabolite, Ara H are then monitored by removing plasma from a jugular vein cannula over a 4 hour period and assaying by LC/MS/MS assay.
Animals were dosed with Ara A at a level of 1.5 mg/rat via direct duodenal injection into anesthetized rats (n=2 per compound). Plasma samples were taken from the jugular vein at 0, 1, 2, and 4 hours from the jugular vein and were assayed for Ara A (▪), and Ara H (♦) by LC/MS/MS.
Animals were dosed with 5′-O-L isoleucyl Ara A prodrug at a level of 2.7 mg/rat via direct duodenal injection into anesthetized rats (n=3 per compound). Plasma samples were taken from the jugular vein at 0, 0.5, 1, 2, and 4 hours from the jugular vein and were assayed for prodrug (□), Ara A (▪), and Ara H (♦) by LC/MS/MS.
FIG. 6 is a graph showing mean plasma profiles of Ara A, Ara H, and 5′-O-D Isoleucyl Ara A after administration of 5′-O-D Isoleucyl Ara A into the duodenum of a rat. Animals were dosed with 5′-O-D Isoleucyl Ara A prodrug at a level of 2.7 mg/rat via direct duodenal injection into anesthetized rats (n=2). Plasma samples were taken from the jugular vein at 0, 0.5, 1, 2, and 4 hours from the jugular vein and were assayed for prodrug (□), Ara A (▪), and Ara H (♦) by LC/MS/MS.
FIG. 7 is a graph showing mean plasma profiles of Ara A, Ara H, and 5′-O-L Valyl Ara A after administration of 5′-O-L Valyl Ara A into the duodenum of a rat. Animals were dosed with 5′-O-L Valyl Ara A prodrug at a level of 3 mg/rat via direct duodenal injection into anesthetized rats (n=2). Plasma samples were taken from the jugular vein at 0, 0.5, 1, 2, and 4 hours from the jugular vein and were assayed for prodrug (□), Ara A (▪), and Ara H (♦) by LC/MS/MS.
FIG. 8 is a graph showing mean plasma profiles of Ara A, Ara H, and 5′-O-D Valyl Ara A after administration of 5′-O-D Valyl Ara A into the duodenum of a rat. Animals were dosed with 5′-O-D Valyl Ara A prodrug at a level of 3.0 mg/rat via direct duodenal injection into anesthetized rats (n=3). Plasma samples were taken from the jugular vein at 0, 0.5, 1, 2, and 4 hours from the jugular vein and were assayed for prodrug (□), Ara A (▪), and ara H (♦) by LC/MS/MS.
FIG. 9 is a graph showing mean plasma profiles of Ara A, Ara H, and 5′-O-Glycyl Ara A after administration of 5′-O-Glycyl Ara A into the duodenum of a rat. Animals were dosed with 5′-O-Glycyl Ara A prodrug at a level of 3.0 mg/rat via direct duodenal injection into anesthetized rats (n=2). Plasma samples were taken from the jugular vein at 0, 0.5, 1, 2, and 4 hours from the jugular vein and were assayed for prodrug (□), Ara A (▪), and Ara H (♦) by LC/MS/MS.

For series [5] the following is noted: buffer.
Series [6] has as its system KB cell.
A short description of another series: KB cell cytotoxicity. Particulars: human, KB cells.
A further series deals with Cowpox. The experiment in a line: organism not typed. Format: cell-based. Particulars: read-out: Cowpox Plaque Reduction (IC50).

Like-named read-outs stand apart in the source and are kept apart here. Bounds are passed on as bounds.

What is called IC50 is the concentration needed to halve the response being measured.

Consider `Nc1ncnc2c1ncn2[C@@H]1O[C@H](COC(=O)[C@@H](N)CC(=O)O)[C@@H](O)[C@@H]1O` [5′-O-L-aspartyl Ara A], for which the IC50 in the series with vaccinia virus (HFF cells, 3 days) amounted to 7 µM; with KB cell [2] it was 60 µM. Also, the hPepT1/Control in series [1] worked out at 1.27. The HeLa/hPEPT1 uptake in [1] came out at 5.0 ± 0.2.
With `CC[C@H](C)[C@H](N)C(=O)OC[C@H]1O[C@@H](n2cnc3c(N)ncnc32)[C@@H](O)[C@@H]1O` [5′-O-L-isoleucyl Ara A], in the series with vaccinia virus (HFF cells, 3 days), the IC50 stood at 4.5 µM. Also, in series [1], the hPepT1/Control came to 26.9 and the HeLa/hPEPT1 uptake is 202.0 ± 4.8. Besides, the IC50 in the series with KB cell [2] is greater than 100 µM. Moreover, in the series with Caco-2 monolayers, the Permeability is 5.66 ± 0.14 ×10^−6, cm/s; the “Stability (% remaining) Apical chamber (donor)” value is reported as 89.6%; the “Stability (% remaining) Basolateral chamber (receiver)” value is 77.5%. For the same compound, in series [3], the “t1/2 Caco-2” value came to 27.0 ± 1.3 min. The “AUC0-4 hr of Prodrug” value in [4] was determined as 658 ± 314 ng·h/mL. The “fold increase in circulating Ara A levels over dosing with Ara A” value in series [4] (rat, duodenal injection) was greater than 20 fold. Also, in [4] (rat, in vivo), the “percent of total drug measured in plasma found to be Ara-H” value is on record as roughly 15%, the “percent of total drug measured in plasma present as Ara A” value is “approximately 17%” and the “percent of total drug measured in plasma present as prodrug” value is roughly 68%.
As to `Nc1ncnc2c1ncn2[C@@H]1O[C@H](COC(=O)[C@@H]2CCCN2)[C@@H](O)[C@@H]1O` [5′-O-L-prolyl Ara A], the IC50 with vaccinia virus (HFF cells, 3 days) came out at 12 µM. Also, the “t1/2 pH 7.4” value in series [5] is listed as 20.1 ± 1.0 min. In series [1], the hPepT1/Control was 1.06 and the HeLa/hPEPT1 uptake is reported as 40.8 ± 1.0. The IC50 in the series on KB cell [6] amounted to 45 µM. Also, the “t1/2 Caco-2” value in [3] is 1.3 ± 0.005 min.
As for `Nc1ccn(C[C@@H](CO)OCP(=O)(O)O)c(=O)n1` [Cidofovir, reference compound], the IC50 is 26 µM with vaccinia virus (Orthopoxvirus vaccinia, HFF, 72 h); greater than 100 µM in the series “KB cell cytotoxicity”; 30 µM in the series on Cowpox.
As to `CC(C)[C@@H](N)C(=O)OC[C@H]1O[C@@H](n2cnc3c(N)ncnc32)[C@@H](O)[C@@H]1O` [5′-O-D-valyl Ara A], the IC50 with vaccinia virus (HFF cells, 3 days) turned out to be 3.5 µM. Besides, the IC50 in the series with KB cell [2] is greater than 100 µM. The “AUC0-4 hr of Prodrug” value in series [4] came out at 637 ± 74 ng·h/mL. In addition, in series [4] (rat, duodenal injection), the “plasma Ara A levels after dosing (in words)” value was “Increased levels of plasma Ara A”; the “prodrug absorption / prodrug concentrations in systemic plasma (in words)” value is “extended and enhanced concentrations of the prodrug in systemic plasma”.
Regarding `O=c1[nH]cnc2c1ncn2[C@@H]1O[C@H](CO)[C@@H](O)[C@@H]1O` [Ara-H, 9-(beta-D-arabinofuranosyl) hypoxanthine], in the series on Cowpox, the IC50 was greater than 100 µM.
With `CC(C)[C@H](N)C(=O)OC[C@H]1O[C@@H](n2cnc3c(N)ncnc32)[C@@H](O)[C@@H]1O` [5′-O-L-valyl Ara A], the IC50 in the series with vaccinia virus (HFF cells, 3 days) is 12 µM. In series [1], this compound came in with a hPepT1/Control of 20.7 and a HeLa/hPEPT1 uptake of 80.3 ± 1.1. The IC50 in the series with KB cell [2] worked out at 65 µM. For the same compound, in the series on Caco-2 monolayers, the Permeability was 3.86 ± 0.03 ×10^−6, cm/s; the “Stability (% remaining) Apical chamber (donor)” value worked out at 82.1%; the “Stability (% remaining) Basolateral chamber (receiver)” value amounted to 62.0%. Besides, the “t1/2 Caco-2” value in series [3] was 11.1 ± 0.4 min. In addition, the “AUC0-4 hr of Prodrug” value in series [4] stood at 195 ± 25 ng·h/mL. Moreover, the “plasma Ara A levels after dosing (in words)” value in [4] (rat, duodenal injection) is listed as “Increased levels of plasma Ara A”.
Regarding `Nc1ncnc2c1ncn2[C@@H]1O[C@H](COC(=O)[C@@H](N)Cc2ccccc2)[C@@H](O)[C@@H]1O` [5′-O-L-phenylalanyl Ara A], the IC50 was 20 µM in the series on vaccinia virus (HFF cells, 3 days) and greater than 100 µM with KB cell [6]. The “t1/2 pH 7.4” value in series [5] worked out at 420.9 ± 40.1 min. In addition, in series [3], the “t1/2 Caco-2” value is given as 3.5 ± 1.0 min.
